# Measured values from US20100075907A1, “NEUROMEDIN U RECEPTOR AGONISTS AND USES THEREOF” (priority 2006, published 2010).
# Non-standard residues stand in square brackets, D forms with d. Residues, ends and D or L forms follow the SMILES beside them. *: point of attachment. Succinimide(1-Et,3-yl) = CCN1C(=O)CC(*)C1=O
# Legend:
# Type in all cases: cell-based
# [1] = molecular target: rat NMUR2 (Rattus norvegicus, UniProt Q9ESQ4); assay: FLIPR calcium mobilization assay, rat NMUR2; design: expressed in transfected cells; host or cells: FLP-In CHO or HEK-293 FLP-In cells (pcDNA5); settings: for EC50: FLIPR; for IC50: functional data, rat R2
# Chain of rat NMUR2 (Q9ESQ4 whole entry): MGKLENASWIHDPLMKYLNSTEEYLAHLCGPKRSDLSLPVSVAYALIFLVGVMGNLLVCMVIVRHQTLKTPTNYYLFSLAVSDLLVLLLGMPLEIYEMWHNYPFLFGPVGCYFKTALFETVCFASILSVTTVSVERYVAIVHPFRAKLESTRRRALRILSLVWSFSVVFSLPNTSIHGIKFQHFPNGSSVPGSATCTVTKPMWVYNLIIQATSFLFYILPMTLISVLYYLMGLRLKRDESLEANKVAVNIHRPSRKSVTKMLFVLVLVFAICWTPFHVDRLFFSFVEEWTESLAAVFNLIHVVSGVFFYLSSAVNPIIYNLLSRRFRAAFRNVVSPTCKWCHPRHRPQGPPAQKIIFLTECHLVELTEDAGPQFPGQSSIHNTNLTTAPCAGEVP
# Excerpt: (§1) Human, mouse or rat cDNAs encoding NMUR1 or NMUR2 (as described in Howard et al. Nature 406: 70-74 (2000) were subcloned in pcDNA5 (Invitrogen) and transfected into FLP-In CHO cells and HEK-293 FLP-In cells purchased from Invitrogen (Carlsbad, Calif.) using lipofectamine (Invitrogen). The Flp-In system allows integration and expression of a particular gene of interest at a specific genomic location utilizing the Flp recombinase from yeast. The transfected cells were selected by growth in medium containing 200 μg/mL hygromycin (Invitrogen). Populations were frozen at early passage numbers, and these stocks were used for further studies. Stable clones that expressed the mRNAs were identified functionally by FLIPR as well as by RT-PCR. […] Two different rodent NMUR1 cell lines were thus generated: one with the codon as predicted from the genomic databases and another cell line with an engineered methionine (ATG) as the start codon. Additionally, stable cell lines expressing the human receptors were generated in HEK-293/aeq17 cells which stably express the aequorin gene under the CMV promoter. The human NMUR2 cDNA was cloned into pcDNA3.1 and human NMUR1 was subcloned into pIRES-puro (Clontech, Mountain View, Calif.), after transfection cells were selected in media containing G418 and either hygromycin (NMUR2) or puromycin (NMUR1).
# (§2) The NMU receptors signal primarily through Gαq/11 proteins; therefore calcium mobilization assays can be utilized for functional activity.
# (§3) Stable cell lines expressing human and or rodent NMUR1 or human NMUR2 receptors were plated at a density of 12,000 cells per well overnight on poly-lysine coated 384-well black-walled plates. The following day, the media was removed from the plates and the cells were subsequently loaded with Fluo-3 (Molecular Probes), a calcium sensitive dye, diluted in FLIPR buffer (1× Hank's buffered saline containing 20 mM HEPES, 0.1% BSA, 2.5 mM probenecid (Sigma) and 1.6 mM TR40). All reagents are from Invitrogen unless otherwise noted. Peptide stocks were resuspended in DMSO at a stock concentration of 2 mM and diluted in FLIPR buffer on the day of the experiment to a 4 μM working stock solution.
# (§4) After a 90 minute incubation at room-temperature, cell plates were loaded onto a FLIPR (Molecular Devices) to monitor cellular fluorescence (excitation=488 nm; emission=540 nm) before and after compound/peptide addition. Eight to twelve point dose responses were tested on NMUR-expressing cell lines using FLIPR with 1 μM peptide as the highest dose. The response after peptide addition was taken as the maximum fluorescence units minus the fluorescence immediately prior to stimulation for each well. EC50 values were calculated using GraphPad Prism (San Diego, Calif.) software.
# (§5) In vitro responses of Neuromedin U receptor agonists (NMU1 to NMU25) in the FLIPR assay for human (Table 3), mouse (Table 4) and rat (Table 5) NMUR1 and NMUR2. EC50s are reported in nM values. Percent activity refers to the maximum response at 1 μM compared to the hNMU-25 response at the same concentration. NT=not tested.
# [2] = molecular target: T1, rat NMUR1-ATG (Rattus norvegicus, UniProt Q9JJI5); assay: FLIPR calcium mobilization assay, rat NMUR1-ATG; design: expressed in transfected cells; host or cells: FLP-In CHO or HEK-293 FLP-In cells (pcDNA5); settings: for EC50: FLIPR
# T1 sequence (Q9JJI5 1-425): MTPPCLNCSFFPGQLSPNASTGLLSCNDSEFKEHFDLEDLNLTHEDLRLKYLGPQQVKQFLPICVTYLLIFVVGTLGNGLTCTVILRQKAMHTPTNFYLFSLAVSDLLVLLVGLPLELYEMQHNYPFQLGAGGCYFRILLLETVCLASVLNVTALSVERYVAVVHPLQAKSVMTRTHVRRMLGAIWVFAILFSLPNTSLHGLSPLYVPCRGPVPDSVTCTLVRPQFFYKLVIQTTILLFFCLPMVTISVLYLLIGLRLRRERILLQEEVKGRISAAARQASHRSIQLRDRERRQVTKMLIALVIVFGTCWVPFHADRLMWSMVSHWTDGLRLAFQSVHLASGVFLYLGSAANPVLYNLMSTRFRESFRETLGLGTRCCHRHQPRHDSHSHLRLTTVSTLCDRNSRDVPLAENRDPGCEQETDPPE
# Excerpt: as §1, §2, §3, §4, §5
# [3] = molecular target: T2, hNMUR1 (Homo sapiens, UniProt Q9HB89); assay: FLIPR calcium mobilization assay, human NMUR1; design: expressed in transfected cells; host or cells: FLP-In CHO or HEK-293 FLP-In cells (pcDNA5); HEK-293/aeq17 lines (pIRES-puro) were also made; settings: for EC50: FLIPR
# T2 sequence (Q9HB89 1-426): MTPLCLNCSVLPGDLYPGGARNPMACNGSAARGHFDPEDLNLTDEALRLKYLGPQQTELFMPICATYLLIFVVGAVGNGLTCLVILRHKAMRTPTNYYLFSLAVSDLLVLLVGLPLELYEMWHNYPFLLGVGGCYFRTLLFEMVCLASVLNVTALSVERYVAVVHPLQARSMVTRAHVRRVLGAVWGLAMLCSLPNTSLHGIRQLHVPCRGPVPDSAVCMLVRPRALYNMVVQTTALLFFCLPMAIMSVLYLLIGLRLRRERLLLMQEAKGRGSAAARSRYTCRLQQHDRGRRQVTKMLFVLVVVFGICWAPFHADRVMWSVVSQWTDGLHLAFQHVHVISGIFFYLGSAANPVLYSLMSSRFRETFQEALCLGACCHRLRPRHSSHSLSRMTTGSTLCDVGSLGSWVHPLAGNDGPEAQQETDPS
# Excerpt: as §1, §2, §3, §4, §5
# [4] = molecular target: mouse NMUR2 (Mus musculus, UniProt Q8BZ39); assay: FLIPR calcium mobilization assay, mouse NMUR2; design: expressed in transfected cells; host or cells: FLP-In CHO or HEK-293 FLP-In cells (pcDNA5); settings: for EC50: FLIPR; for IC50: functional data, mouse R2
# Chain of mouse NMUR2 (Q8BZ39 whole entry): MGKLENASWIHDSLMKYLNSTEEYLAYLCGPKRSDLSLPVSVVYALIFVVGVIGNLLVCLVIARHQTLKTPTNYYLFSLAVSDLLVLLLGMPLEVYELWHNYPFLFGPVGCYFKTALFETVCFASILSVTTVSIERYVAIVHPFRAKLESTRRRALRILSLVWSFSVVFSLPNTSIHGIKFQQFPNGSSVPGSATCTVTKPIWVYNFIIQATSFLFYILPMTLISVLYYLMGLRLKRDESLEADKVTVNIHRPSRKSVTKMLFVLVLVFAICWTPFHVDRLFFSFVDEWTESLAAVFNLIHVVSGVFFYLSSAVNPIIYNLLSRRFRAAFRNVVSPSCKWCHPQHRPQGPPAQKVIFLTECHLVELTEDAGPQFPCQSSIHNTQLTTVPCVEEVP
# Excerpt: as §1, §2, §3, §4, §5
# [5] = molecular target: hNMUR2 (Homo sapiens, UniProt Q9GZQ4); assay: FLIPR calcium mobilization assay, human NMUR2; design: expressed in transfected cells; host or cells: FLP-In CHO or HEK-293 FLP-In cells (pcDNA5); HEK-293/aeq17 lines (pcDNA3.1) were also made; settings: for EC50: FLIPR
# Chain of hNMUR2 (Q9GZQ4 whole entry): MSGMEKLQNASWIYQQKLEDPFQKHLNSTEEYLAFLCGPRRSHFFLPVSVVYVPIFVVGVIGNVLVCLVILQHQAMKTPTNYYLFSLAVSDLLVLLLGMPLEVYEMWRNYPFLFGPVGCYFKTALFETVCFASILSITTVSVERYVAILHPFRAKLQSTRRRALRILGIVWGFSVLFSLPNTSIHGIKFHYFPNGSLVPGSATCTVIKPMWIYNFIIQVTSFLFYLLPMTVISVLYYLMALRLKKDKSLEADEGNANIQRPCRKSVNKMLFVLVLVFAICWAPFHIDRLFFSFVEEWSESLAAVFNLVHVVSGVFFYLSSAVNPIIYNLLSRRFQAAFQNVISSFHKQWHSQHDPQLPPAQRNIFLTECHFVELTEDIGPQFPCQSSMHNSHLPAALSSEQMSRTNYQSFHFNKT
# Excerpt: as §1, §2, §3, §4, §5
# [6] = maximum response at 1 μM compared to hNMU-25, rat NMUR2
# [7] = maximum response at 1 μM compared to hNMU-25, rat NMUR1-ATG
# [8] = maximum response at 1 μM compared to hNMU-25 response at same concentration, human NMUR1
# [9] = maximum response at 1 μM compared to hNMU-25, mouse NMUR2
# [10] = maximum response at 1 μM compared to hNMU-25, human NMUR2
Molecule,EC50 ([1]; rat NMUR2),"% Activity [1, 6]","% Activity [2, 7]","% Activity [3, 8]",EC50 ([4]; mouse NMUR2),"% Activity [4, 9]",EC50 ([5]; human NMUR2),"% Activity [5, 10]",EC50 ([2]; rat NMUR1-ATG),EC50 ([3]; human NMUR1),IC50 [1],"% Activity ([1]; functional, rat R2, relative to native hNMU responses)","% Activity ([2]; functional, rat R1-ATG, relative to native hNMU responses)","% Activity ([3]; functional, human R1, relative to native hNMU responses)",IC50 [4],"% Activity ([4]; functional, mouse R2, relative to native hNMU responses)","% Activity ([5]; functional, human R2, relative to native hNMU responses)","IC50 ([2]; functional data, rat R1-ATG)"
"CCN1C(=O)CC(SC[C@H](NC(C)=O)C(=O)N[C@@H](Cc2ccccc2)C(=O)N[C@@H](CCCNC(=N)N)C(=O)N[C@H](C(=O)N[C@@H](CC(=O)O)C(=O)N[C@@H](CCC(=O)O)C(=O)N[C@@H](CCC(=O)O)C(=O)N[C@@H](Cc2ccccc2)C(=O)N[C@@H](CCC(N)=O)C(=O)N[C@@H](CO)C(=O)N2CCC[C@H]2C(=O)N[C@@H](Cc2ccccc2)C(=O)N[C@@H](C)C(=O)N[C@@H](CO)C(=O)N[C@@H](CCC(N)=O)C(=O)N[C@@H](CO)C(=O)N[C@@H](CCCNC(=N)N)C(=O)NCC(=O)N[C@@H](Cc2ccc(O)cc2)C(=O)N[C@@H](Cc2ccccc2)C(=O)N[C@H](C)C(=O)N[C@@H](Cc2c[nH]c3ccccc23)C(=O)N[C@@H](CCCNC(=N)N)C(=O)N2CCC[C@H]2C(=O)N[C@@H](CCCNC(=N)N)C(=O)N[C@@H](CC(N)=O)C(N)=O)C(C)C)C1=O (stereo partly shown) [NMU13] (Ac-C(Succinimide(1-Et,3-yl))FRVDEEFQSPFASQSRGYF[dA]WRPRN-NH2)",> 1000 nM,0.0%,100%,100%,> 1000 nM,0.0%,> 1000 nM,0.0%,–,–,> 1000 nM,24%,92%,91%,> 1000 nM,27%,0%,–
Ac-FRVDEEFQSPFASQSRPYFLFRPRN-NH2 [NMU5],–,100%,100%,98.1%,1 nM,100%,–,98.1%,–,–,–,–,–,–,–,–,–,–
Ac-FRVDEEFQSPFASQSRGYFLFRPRN-NH2 [NMU2],2.2 nM,100%,89.2%,99.0%,1.2 nM,100%,2.6 nM,97.4%,–,5.5 nM,–,–,–,–,–,–,–,–
"H-FRVDEEFQSPFASQSRGYFLFRPRN-NH2 [hNMU-25, reference compound]",–,–,–,–,–,–,–,–,–,–,1.6 nM,–,–,–,0.2 nM,–,–,1.3 nM

# Continued, in another order:
EC50 ([1]; rat NMUR2),"% Activity [1, 6]","% Activity [2, 7]","% Activity [3, 8]",EC50 ([4]; mouse NMUR2),"% Activity [4, 9]",EC50 ([5]; human NMUR2),"% Activity [5, 10]",EC50 ([2]; rat NMUR1-ATG),EC50 ([3]; human NMUR1),Molecule,IC50 [1],"% Activity ([1]; functional, rat R2, relative to native hNMU responses)","% Activity ([2]; functional, rat R1-ATG, relative to native hNMU responses)","% Activity ([3]; functional, human R1, relative to native hNMU responses)",IC50 [4],"% Activity ([4]; functional, mouse R2, relative to native hNMU responses)","% Activity ([5]; functional, human R2, relative to native hNMU responses)","IC50 ([2]; functional data, rat R1-ATG)"
47.4 nM,90.2%,76.4%,66.9%,21.3 nM,–,–,–,127 nM,300 nM,"Ac-C4-C4-FRVDEEFQSPFASQSRGYFLFRPRN-CONH2 ({Ac-C(PEG 20 kDa)-C(PEG 20 kDa)}-FRVDEEFQSPFASQSRGYFLFRPRN-NH2) [NMU23, C4 = Cys(PEG)20 kDa]",–,–,–,–,–,–,–,–
–,100%,100%,96.7%,–,100%,1.5 nM,100%,1 nM,–,"CCN1C(=O)CC(SC[C@H](NC(C)=O)C(=O)NCC(=O)N[C@@H](Cc2ccc(O)cc2)C(=O)N[C@@H](Cc2ccccc2)C(=O)N[C@@H](CC(C)C)C(=O)N[C@@H](Cc2ccccc2)C(=O)N[C@@H](CCCNC(=N)N)C(=O)N2CCC[C@H]2C(=O)N[C@@H](CCCNC(=N)N)C(=O)N[C@@H](CC(N)=O)C(N)=O)C1=O (stereo partly shown) [NMU6] (Ac-C(Succinimide(1-Et,3-yl))GYFLFRPRN-NH2)",–,–,–,–,–,–,–,–
7 nM,99.2%,99.9%,93.2%,–,–,24.2 nM,97.9%,19.5 nM,14.5 nM,"Ac-C4FRVDEEFQSPFASQSRGYFLFRPRN-CONH2 ({Ac-C(PEG 20 kDa)}-FRVDEEFQSPFASQSRGYFLFRPRN-NH2) [NMU21, C4 = Cys(PEG)20 kDa]",–,–,–,–,–,–,–,–
